Earlier results in US11865206B2 (priority 2018, dated 2024).
Read-outs that look alike come from different tables or passages of the source.

Columns and labels:
[1] = not given; remark: listed apart in the source

**Q.** What does the source list for `O=NN(CCCl)C(=O)NCCCl` [Carmustine, 1,3-bis(2-chloroethyl)-1-nitrosourea]?
**A.** Solubility (in alcohol and lipids): highly soluble; Solubility (in water): poorly soluble; Crossing of the blood brain barrier ([1]; following IV infusion): can cross the blood brain barrier; Oral bioavailability ([1]; oral): poor oral bioavailability
